In ChEMBL document CHEMBL2396582, “Large conductance Ca(2+)-activated K(+) channel (BKCa) activating properties of a series of novel N-arylbenzamides: Channel subunit dependent effects” (Bioorg Med Chem, 2013):
Active and inactive are the calls of the source. The calls are words filed in the database; no cut-off is given here.

Tests used:
Assay type in all cases: cell-based
[1] = molecular target: T1, Calcium-activated potassium channel alpha/beta 1 (Homo sapiens) (UniProt Q12791+Q16558); test: Activation of human BKCA alpha/beta1 channel expressed in HEK293 cells assessed as increase of rubidium efflux after 10 mins relative to control
[2] = molecular target: Calcium-activated potassium channel subunit alpha-1 (Homo sapiens) (UniProt Q12791); test: Activation of human BKCA alpha channel expressed in HEK293 cells assessed as increase of rubidium efflux after 10 mins
[3] = molecular target: Calcium-activated potassium channel subunit alpha-1 (Homo sapiens) (UniProt Q12791); test: Activation of human BKCA alpha channel expressed in HEK293 cells assessed as increase of rubidium efflux at 100 uM after 10 mins in presence of paxilline
[4] = molecular target: T1, Calcium-activated potassium channel alpha/beta 1 (Homo sapiens); test: Activation of human BKCA alpha/beta1 channel expressed in HEK293 cells assessed as increase of rubidium efflux after 10 mins in presence paxilline
[5] = molecular target: Calcium-activated potassium channel subunit alpha-1 (Homo sapiens) (UniProt Q12791); test: Activation of human BKCA alpha channel expressed in HEK293 cells assessed as increase of rubidium efflux at 100 uM after 10 mins in presence of iberiotoxin
[6] = molecular target: T1, Calcium-activated potassium channel alpha/beta 1 (Homo sapiens); test: Activation of human BKCA alpha/beta1 channel expressed in HEK293 cells assessed as increase of rubidium efflux after 10 mins
[7] = molecular target: Calcium-activated potassium channel subunit alpha-1 (Homo sapiens) (UniProt Q12791); test: Activation of human BKCA alpha channel expressed in HEK293 cells assessed as increase of rubidium efflux after 10 mins relative to control
[8] = molecular target: T1, Calcium-activated potassium channel alpha/beta 1 (Homo sapiens); test: Activation of human BKCA alpha/beta1 channel expressed in HEK293 cells assessed as increase of rubidium efflux after 10 mins in presence iberiotoxin
[9] = molecular target: Calcium-activated potassium channel subunit alpha-1 (Homo sapiens) (UniProt Q12791); test: Activation of human BKCA alpha channel expressed in HEK293 cells assessed as increase in intracellular calcium level at 100 uM after 30 mins
[10] = molecular target: Calcium-activated potassium channel subunit alpha-1 (Homo sapiens) (UniProt Q12791); test: Activation of human BKCA alpha channel expressed in HEK293 cells assessed as increase in intracellular calcium level at 0.1 uM after 30 mins
[11] = molecular target: Calcium-activated potassium channel subunit alpha-1 (Homo sapiens) (UniProt Q12791); test: Activation of human BKCA alpha channel expressed in HEK293 cells assessed as increase in intracellular calcium level at 50 uM after 30 mins
[12] = molecular target: Calcium-activated potassium channel subunit alpha-1 (Homo sapiens) (UniProt Q12791); test: Activation of human BKCA alpha channel expressed in HEK293 cells assessed as increase in intracellular calcium level at 10 uM after 30 mins

Calcium-activated potassium channel subunit alpha-1 (Homo sapiens), sequence (Q12791 whole entry): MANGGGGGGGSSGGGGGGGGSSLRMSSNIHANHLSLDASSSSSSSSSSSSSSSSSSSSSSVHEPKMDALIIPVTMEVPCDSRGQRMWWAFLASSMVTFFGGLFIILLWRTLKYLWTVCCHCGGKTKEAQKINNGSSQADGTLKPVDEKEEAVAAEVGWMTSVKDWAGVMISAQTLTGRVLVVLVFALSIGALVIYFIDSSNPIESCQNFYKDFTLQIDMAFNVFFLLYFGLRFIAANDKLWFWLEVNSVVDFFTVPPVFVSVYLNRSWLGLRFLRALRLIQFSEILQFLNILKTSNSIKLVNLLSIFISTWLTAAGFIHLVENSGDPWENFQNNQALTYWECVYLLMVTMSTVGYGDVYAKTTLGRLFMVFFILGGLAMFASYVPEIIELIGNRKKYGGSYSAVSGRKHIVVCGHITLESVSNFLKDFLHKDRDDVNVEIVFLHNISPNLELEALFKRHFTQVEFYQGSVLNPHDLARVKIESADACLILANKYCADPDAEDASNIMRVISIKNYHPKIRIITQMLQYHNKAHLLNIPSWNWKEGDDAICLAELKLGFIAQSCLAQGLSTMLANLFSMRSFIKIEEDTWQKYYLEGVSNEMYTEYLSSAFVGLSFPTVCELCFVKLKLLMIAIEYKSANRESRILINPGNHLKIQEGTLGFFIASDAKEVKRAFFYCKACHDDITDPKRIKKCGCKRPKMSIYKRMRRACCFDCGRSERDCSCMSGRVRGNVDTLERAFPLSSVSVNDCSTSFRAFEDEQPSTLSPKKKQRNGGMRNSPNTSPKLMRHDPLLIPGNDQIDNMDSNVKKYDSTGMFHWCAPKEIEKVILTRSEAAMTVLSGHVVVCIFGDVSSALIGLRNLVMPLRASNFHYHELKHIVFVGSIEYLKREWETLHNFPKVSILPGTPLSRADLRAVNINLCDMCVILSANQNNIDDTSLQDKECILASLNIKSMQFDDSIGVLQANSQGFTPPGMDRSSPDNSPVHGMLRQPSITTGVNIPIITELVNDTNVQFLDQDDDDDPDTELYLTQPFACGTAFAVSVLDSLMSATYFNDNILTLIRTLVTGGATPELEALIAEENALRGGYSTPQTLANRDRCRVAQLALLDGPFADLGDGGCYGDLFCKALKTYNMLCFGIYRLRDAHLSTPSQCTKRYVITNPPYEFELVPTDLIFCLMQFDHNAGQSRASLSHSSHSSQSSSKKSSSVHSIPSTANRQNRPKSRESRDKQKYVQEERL

Compound	Emax [1]	EC40 [2]	Activity [3]	Activity [4]	Activity [5]	EC40 [6]	Emax [7]	Activity [8]	Activity [9]	Activity [10]	Activity [11]	Activity [12]
COc1ccc(Cl)cc1C(=O)Nc1ccncc1	65.1%	1120 nM	inactive	inactive	inactive	4160 nM	99.2%	inactive	–	–	–	–
Cc1ccccc1C(=O)Nc1cc(Cl)ccc1O	56.8%	2950 nM	inactive	inactive	inactive	3630 nM	59.7%	inactive	–	–	–	–
O=C(Nc1cc(Cl)ccc1O)c1ccccc1	32.9%	1410 nM	inactive	inactive	inactive	–	62.5%	inactive	–	–	–	–
O=c1[nH]c2cc(C(F)(F)F)ccc2n1-c1cc(C(F)(F)F)ccc1O	76.6%	350 nM	inactive	inactive	inactive	790 nM	61.7%	inactive	5.3%	–	–	–
COc1ccc(Cl)cc1C(=O)Nc1cccnc1	68.8%	310 nM	inactive	inactive	inactive	3470 nM	72.5%	inactive	–	–	–	–
COc1ccc(Cl)cc1C(=O)Nc1ccccn1	42%	4470 nM	inactive	inactive	inactive	46800 nM	49.1%	inactive	–	–	–	–
CC(C)[C@@]1(O)[C@@H](OC(=O)c2cc[nH]c2)[C@@]2(O)[C@]3(C)C[C@@]4(O)O[C@@]5([C@H](O)[C@@H](C)CC[C@]35O)[C@@]2(O)[C@@]41C	–	–	–	–	–	–	–	–	–	38.1%	–	–
CCOc1ccccc1C(=O)Nc1cc(Cl)ccc1O	99.5%	210 nM	inactive	inactive	inactive	120 nM	69.9%	inactive	6.2%	–	–	–
Cc1ccc(NC(=O)c2ccccc2O)c([N+](=O)[O-])c1	54.4%	560 nM	inactive	inactive	inactive	1410 nM	86.4%	inactive	–	–	–	–
C=C[C@@]1(C)CC(=O)[C@]2(O)[C@@]3(C)[C@@H](O)CCC(C)(C)[C@@H]3[C@H](O)[C@H](OC(C)=O)[C@@]2(C)O1	–	–	–	–	–	–	–	–	–	–	22.3%	–
CNc1ccc2oc(C[C@H]3O[C@@]4(CC[C@H]3C)O[C@H]([C@H](C)C(=O)c3ccc[nH]3)[C@H](C)C[C@H]4C)nc2c1C(=O)O	–	–	–	–	–	–	–	–	–	–	–	416%
